Test results as given in PubChem BioAssay (NCI).
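Growth conditions: 96-well plates. Treatment: test compound, 48 hours, 5 concentrations. Analysis: linear interpolation between bracketing concentrations; unreached endpoints set to highest concentration. GI50 marks 50% less growth. TGI is the concentration that stops growth completely.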

Tests used:
Experiment in all cases: NCI anticancer screen, dose series, 48 h
HOP-92 NSCLC = tested on: HOP-92 NSCLC
NCI-H522 lung = tested on: NCI-H522 lung
CCRF-CEM leukemia = tested on: CCRF-CEM leukemia
EKVX NSCLC = tested on: EKVX NSCLC
NCI-H23 lung = tested on: NCI-H23 lung
KM12 colon = tested on: KM12 colon
SK-MEL-28 melanoma = tested on: SK-MEL-28 melanoma
SF-539 CNS = tested on: SF-539 CNS
ACHN renal = tested on: ACHN renal
UO-31 renal = tested on: UO-31 renal

| Structure (SMILES) | TGI (HOP-92 NSCLC) | TGI (NCI-H522 lung) | TGI (CCRF-CEM leukemia) | TGI (EKVX NSCLC) | TGI (NCI-H23 lung) | TGI (KM12 colon) | TGI (SK-MEL-28 melanoma) | TGI (SF-539 CNS) | TGI (ACHN renal) | TGI (UO-31 renal) | GI50 (HOP-92 NSCLC) | GI50 (NCI-H522 lung) | GI50 (CCRF-CEM leukemia) | GI50 (EKVX NSCLC) | GI50 (NCI-H23 lung) | GI50 (KM12 colon) | GI50 (SK-MEL-28 melanoma) | GI50 (SF-539 CNS) | GI50 (ACHN renal) | GI50 (UO-31 renal) |
| --- | --- | --- | --- | --- | --- | --- | --- | --- | --- | --- | --- | --- | --- | --- | --- | --- | --- | --- | --- | --- |
| Cc1cccc(C)c1N1C(=O)C(=O)C(c2nc3ccccc3s2)/C(=N/NC(=O)c2ccccc2O)C1=O (configuration not stated) | > 67.5 µM | 39.6 µM | > 65.3 µM | > 100 µM | 39.1 µM | > 100 µM | > 83.1 µM | 59.5 µM | > 89.4 µM | 22.4 µM | – | – | – | – | – | – | – | – | – | – |
| CCOc1ccc(NCC2CC/C(=C\c3ccccc3OC)C2=O)cc1 (configuration not stated) | 34 µM | 4.36 µM | 7.22 µM | 31.9 µM | 34.7 µM | 9.1 µM | 24.1 µM | 23.9 µM | 27.8 µM | 26.2 µM | – | – | – | – | – | – | – | – | – | – |
| O=C(c1ccccc1)c1c(C(F)(F)F)n([O-])c2cc(C(F)(F)F)ccc2[n+]1=O | 2.95 µM | 2.72 µM | 2.44 µM | 3.42 µM | 4.9 µM | 3.17 µM | 3.23 µM | 3.17 µM | 2.93 µM | 2.67 µM | 1.51 µM | 1.23 µM | 0.6 µM | 1.73 µM | 1.54 µM | 1.6 µM | 1.71 µM | 1.74 µM | 1.54 µM | 1.32 µM |
| O=C(CI)Nc1ccc(O)c2ccccc12 | 3.39 µM | 0.297 µM | – | 8.59 µM | 3.69 µM | 3.69 µM | 3.74 µM | 4.47 µM | 2.84 µM | 2.01 µM | 1.61 µM | 0.142 µM | – | 2.52 µM | 1.67 µM | 1.9 µM | 1.78 µM | 1.8 µM | 1.49 µM | 0.647 µM |
| O=C1C(=O)c2ccccc2C(O)=C1CCCc1ccc(C2CCCCC2)cc1 | 24 µM | > 100 µM | – | 20.9 µM | 61.4 µM | 17.9 µM | 27.2 µM | 28.7 µM | > 100 µM | 23.2 µM | 1.71 µM | 7.69 µM | – | 3.22 µM | 4.14 µM | 4.16 µM | 8.54 µM | 5.78 µM | 5.15 µM | 5 µM |
| O=S(=O)(N=NC=C1c2ccccc2N(O)c2ccccc21)c1ccc(Cl)cc1 | > 100 µM | > 100 µM | > 100 µM | > 100 µM | > 100 µM | > 100 µM | > 100 µM | – | > 100 µM | > 100 µM | – | – | – | – | – | – | – | – | – | – |
| COC(=O)/C(C#N)=C(\N)C(Cl)(Cl)Cl | 9.85 µM | 4.14 µM | 2.67 µM | 17.8 µM | – | 15.8 µM | 4.66 µM | – | 6.6 µM | 86.6 µM | – | – | – | – | – | – | – | – | – | – |
| COC1=CC(c2ccc[nH]2)=N/C1=C\c1[nH]c(C)c(CC(=O)OCc2ccccc2)c1C | 0.81 µM | 1.86 µM | 1.94 µM | 2.06 µM | 2.98 µM | 2.28 µM | – | – | 0.886 µM | 0.398 µM | 0.244 µM | 0.273 µM | 0.184 µM | 0.351 µM | 0.399 µM | 0.272 µM | – | – | 0.296 µM | 0.193 µM |
| COC1CCC(OC)C(C2(C3CC(OC)CCC3OC)OC(=O)c3ccccc32)C1 (configuration not stated) | > 100 µM | 52.1 µM | – | > 100 µM | > 100 µM | > 100 µM | – | > 100 µM | > 100 µM | > 100 µM | – | – | – | – | – | – | – | – | – | – |
| Clc1ccc2nc(CI)c(CI)nc2c1 | 8.3 µM | – | 15.3 µM | 40.9 µM | 25.8 µM | 17.6 µM | 27.7 µM | 6.31 µM | 3.4 µM | 3.5 µM | 3 µM | – | 2.3 µM | 13.6 µM | 7.37 µM | 6.07 µM | 14.4 µM | 2.46 µM | 1.83 µM | 1.72 µM |
| O=C1CNC(=O)c2[nH]cnc2N1 | – | – | > 100 µM | > 100 µM | > 100 µM | > 100 µM | > 100 µM | > 100 µM | > 100 µM | > 100 µM | – | – | – | – | – | – | – | – | – | – |
| CC(C(=O)c1ccccc1)C1(O)C(=O)Nc2ccc(Cl)cc21 (configuration not stated) | > 100 µM | – | – | > 100 µM | > 100 µM | > 100 µM | > 100 µM | > 100 µM | > 100 µM | 89.7 µM | – | – | – | – | – | – | – | – | – | – |
| C#CC1(O)CCC2[C@@H]3CCc4cc(Oc5nc(F)nc(-c6c7ccccc7c(SCC)n6CCC)n5)ccc4C3CC[C@@]21C (some centres not stated) | > 100 µM | – | > 100 µM | > 100 µM | 63.9 µM | > 100 µM | > 100 µM | > 100 µM | > 100 µM | > 100 µM | – | – | – | – | – | – | – | – | – | – |
| COc1ccc(NC(=O)c2sc3nc(C)c(C(=O)/C=C/c4cccc(OC)c4)cc3c2N)cc1 | 9.99 µM | 5.41 µM | > 50 µM | 32.5 µM | 18.6 µM | 5.06 µM | – | 3.49 µM | 2.49 µM | 1.76 µM | 1.51 µM | 1.38 µM | 1.21 µM | 5.7 µM | 2.35 µM | 1.45 µM | – | 1.31 µM | 1.08 µM | 0.842 µM |
| O=C(Nc1ccccc1-c1nn(CN2CCNCC2)c(=S)n(CN2CCNCC2)c1=O)C(F)(F)F | 45.8 µM | – | 45.2 µM | 32.2 µM | 32.6 µM | 40.7 µM | 33.2 µM | 35.3 µM | 63.9 µM | 32.6 µM | – | – | – | – | – | – | – | – | – | – |
| CCOC(=O)C1=C(C)N(NC(N)=O)C2(N)N(NC(N)=O)C(C)=C(C(=O)OCC)C12C(=O)OCC (configuration not stated) | – | > 100 µM | – | > 100 µM | – | > 100 µM | > 100 µM | > 100 µM | > 100 µM | > 100 µM | – | – | – | – | – | – | – | – | – | – |
| COc1cc(C(C)c2cc3c(cc2OCCNC(=O)COc2cc4c(cc2C(C)c2cc(OC)c(OC)c(OC)c2)OCO4)OCO3)cc(OC)c1OC (configuration not stated) | – | 92.6 µM | > 100 µM | > 100 µM | > 100 µM | > 100 µM | > 100 µM | > 100 µM | > 100 µM | > 100 µM | – | – | – | – | – | – | – | – | – | – |
| Cc1c(Cl)cccc1NC(=O)/C=C/c1ccccc1 | > 100 µM | > 100 µM | > 100 µM | > 100 µM | > 100 µM | > 100 µM | > 100 µM | > 100 µM | > 100 µM | – | – | – | – | – | – | – | – | – | – | – |
